Measurements: patent US20210113598A1, “Combination of MIDH1 Inhibitors and DNA Hypomethylating Agents (HMA)” (Deutsches Krebsforschungszentrum (DKFZ) Stiftung des …, priority 2017, published 2021)

How the values were obtained:
human IDH1 mutated AML [1] = experiment: Transplantation and treatment of mice (PDX model of IDH1 mutated AML); settings: for leukemic cells in peripheral blood: monotherapy, week 4 until end of treatment at week 12, Compound A1 150 mg/kg p.o. once daily, azacitidine 1 mg/kg s.c. days 1-5
Method: Leukemic cells from an AML patient with mutated DH1, NPM1, FLT3-TKD and NRAS were xenografted in immunocompromised mice. One million patient-derived AML cells collected from bone marrow and spleen of leukemic mice were injected intravenously in the tail vein of sublethally (3 Gy) irradiated NSG mice. […] The proportion of leukemic cells in peripheral blood of mice was measured with a human-specific CD45 antibody by tail vein bleeds and FACS analysis. The control groups were treated with either vehicle, Compound A1 150 mg/kg once daily p.o. continuously, or azacitidine 1 mg/kg once daily s.c. days 1-5, repeated once after 28 days. The test groups were treated with Compound A1 and azacitidine in the doses mentioned above either starting both drugs on day 1 (parallel group) or starting azacitidine on day 1 but Compound A1 on day 6 (sequential group).

IDH1 wildtype AML cells = experiment: Clonogenic progenitor (colony formation) assay, IDH1 wildtype AML patient cells; type: cell-based, human; settings: Compound A1 alone
Method: (§1) Colony-forming cell (CFC) units were assayed in methylcellulose (Methocult H4100; StemCell Technologies Inc.) supplemented with 10 ng/mL IL3, 10 ng/mL GM-CSF, 50 ng/mL SCF, 50 ng/mL FLT3-ligand and 3 U/mL EPO (PeproTech). […] of Compound A1 was added in combination with increasing concentrations of Azacytidine to methylcellulose containing 10exp5 human mononuclear cells and were plated in duplicate. Colonies were evaluated microscopically 10 to 14 days after plating by standard criteria. Graphs was plotted as proportion of colonies relative to vehicle treated cells.

human IDH1 mutated AML [2] = settings: background statement, oral; cited from earlier work
[3] = test system: human IDH1 mutated AML cells; experiment: Clonogenic progenitor (colony formation) assay, IDH1 mutated AML patient cells; type: cell-based; settings: Compound A1 alone
Method: as §1

IC50 [3] [µM]	Structure (SMILES)	leukemic cells in peripheral blood (human IDH1 mutated AML [1])	colony formation (IDH1 wildtype AML cells)	leukemia in week 20 (human IDH1 mutated AML [1]; Compound A1 alone, 8 weeks after stopping the treatment)	anti-leukemic activity in PDX models of IDH1 mutant AML in vivo (human IDH1 mutated AML [2])
–	Nc1ncn([C@@H]2O[C@H](CO)[C@@H](O)[C@H]2O)c(=O)n1 [azacitidine, 5-azacytidine, reference compound]	constantly increased	–	–	–
0.1	C[C@H]1C[C@@H](n2c(Nc3ccc(OC(F)(F)F)cc3)nc3cc(CCC(=O)O)ccc32)CC(C)(C)C1 [Compound A1, 3-(2-{[4-(trifluoromethoxy)phenyl]amino}-1-[(1R,5R)-3,3,5-trimethylcyclohexyl]-1H-benzimidazol-5-yl)propanoic acid]	declined	not affected	relapsed	strong anti-leukemic activity
